Laboratory results as given in patent US20170066795A1, “SOLID PRODRUG FORMS OF 2'-CHLORO-2'-METHYL URIDINE FOR HCV” (IDENIX PHARMACEUTICALS LLC, priority 2014, published 2017).
Like-named read-outs stand apart in the source and are kept apart here.

Experiments:
[1] = Example 4 Group A: safety (adverse events) in healthy volunteers; type: in vivo, human
Description: (§1) Six sequential cohorts of 8 health volunteers per cohort were randomized via a computer-generated randomization list in the ratio of 2:6. Two of the healthy volunteers (HV) received placebo and the remaining six received Compound I under fasted conditions at single ascending doses of 10, 25, 50, 150, or 300 mg, or multiple doses at 300 mg QD for 7 days (below, “Group A”).
(§2) For Groups A and B, dosing occurred between approximately 08:00 AM and 10:00 AM on each dosing day. Dosing was fasted for all subjects in Groups A and B. For fasted dosing, subjects observed a fasting period of approximately 10 hours prior to each dose and for an additional 4 hours post-dose.
Safety measurements included clinical history, routine laboratory evaluation, physical examination, 12-lead ECG, vital signs, adverse event (AE) assessment.

[2] = Example 4 Group A: plasma pharmacokinetics in healthy volunteers (LC/MS/MS); conditions: human, in vivo; for AUC(0-inf) / Cmax / half-life: mean ± SD; for AUC(0-inf): read-out: AUC∞ of Compound I; for Cmax: read-out: Cmax of Compound I; for half-life: read-out: t1/2 of Compound I (converted); for Tmax: median, read-out: Tmax of Compound I
Description: as §1
Compound I was provided as size 0, white, hard hydroxypropyl methylcellulose (HPMC) capsules for oral administration at 5 mg, 25 mg, and 50 mg strengths. The same powder blend containing 33.3% weight/weight (w/w) Compound I, a diluent, and a disintegrant is used to fill the capsules for all dose strengths. Matching placebo capsules will also be provided. Storage conditions will be provided on the study drug container label.
as §2
Plasma samples were obtained up to 120 hours after dosing and the levels of Compound I and its Nucleoside metabolite were measured by using validated LC/MS/MS methodology. Plasma pharmacokinetic parameters were obtained by using non-compartmental analysis with parameters reported as mean±standard deviation (SD) except for Tmax where median (min-max) is shown.

[3] = 10 mg, 10 mg single dose, fasted
[4] = 25 mg, 25 mg single dose, fasted
[5] = 50 mg, 50 mg single dose, fasted
[6] = 150 mg, 150 mg single dose, fasted
[7] = 300 mg, 300 mg single dose, fasted

CC(C)OC(=O)[C@@H](C)N[P@@](=O)(OC[C@H]1O[C@@H](n2ccc(=O)[nH]c2=O)[C@](C)(Cl)[C@@H]1O)Oc1ccccc1 [Compound I]
17.4 ± 6.64 ng/mL: Cmax [2, 3]
52.2 ± 15 min: half-life [2, 3]
162 ng·h/mL: AUC(0-inf) [2, 5]
30 min: Tmax ([2]; 300 mg, 300 mg QD, D7, fasted) | Tmax [2, 7]
1110 ± 690 ng·h/mL: AUC(0-inf) [2, 6]
2200 ± 494 ng·h/mL: AUC(0-inf) ([2]; 300 mg, 300 mg QD, D7, fasted)
924 ± 441 ng/mL: Cmax [2, 7]
28.8 ± 13.4 ng/mL: Cmax [2, 4]
82.4 ± 61.6 ng/mL: Cmax [2, 5]
1 (16.7) n, %: Adverse event: Pancreatic enzymes increased ([1]; 25 mg single dose (n = 6)) | Adverse event: Procedural nausea ([1]; 25 mg single dose (n = 6)) | Adverse event: Abdominal discomfort ([1]; 50 mg single dose (n = 6)) | Adverse event: Dizziness ([1]; 50 mg single dose (n = 6)) | Adverse event: Headache ([1]; 50 mg single dose (n = 6)) | Adverse event: Abdominal discomfort ([1]; 150 mg (n = 6)) | Adverse event: Dry mouth ([1]; 150 mg (n = 6)) | Adverse event: Erythema ([1]; 150 mg (n = 6)) | Adverse event: Flushing ([1]; 150 mg (n = 6)) | Adverse event: Headache ([1]; 150 mg (n = 6)) | Adverse event: Vomiting ([1]; 150 mg (n = 6)) | Adverse event: Menstruation delayed ([1]; 300 mg QD x 7 days (n = 6)) | Adverse event: Palpitations ([1]; 300 mg QD x 7 days (n = 6)) | Adverse event: Vessel puncture site bruise ([1]; 300 mg QD x 7 days (n = 6)) | Adverse event: Dizziness ([1]; 300 mg single dose (n = 6)) | Adverse event: Headache ([1]; 300 mg single dose (n = 6)) | Adverse event: Musculoskeletal stiffness ([1]; 300 mg single dose (n = 6)) | Adverse event: Nausea ([1]; 300 mg single dose (n = 6)) | Adverse event: Vessel puncture site bruise ([1]; 300 mg single dose (n = 6))
71.4 ± 20.4 min: half-life [2, 7]
2 (33.3) n, %: Subjects with AE ([1]; 25 mg single dose (n = 6)) | Subjects with AE ([1]; 50 mg single dose (n = 6)) | Adverse event: Abnormal feces ([1]; 150 mg (n = 6)) | Adverse event: Dizziness ([1]; 150 mg (n = 6)) | Subjects with AE ([1]; 300 mg QD x 7 days (n = 6))
51.2 ± 12.8 ng·h/mL: AUC(0-inf) [2, 4]
113 ± 43.2 min: half-life ([2]; 300 mg, 300 mg QD, D1, fasted)
667 ± 324 ng/mL: Cmax [2, 6]
60 min: Tmax [2, 4] | Tmax [2, 5] | Tmax [2, 6]
69.6 ± 14.4 min: half-life [2, 6]
1680 ± 725 ng·h/mL: AUC(0-inf) [2, 7]
1280 ± 238 ng/mL: Cmax ([2]; 300 mg, 300 mg QD, D7, fasted)
2170 ± 660 ng·h/mL: AUC(0-inf) ([2]; 300 mg, 300 mg QD, D1, fasted)
166 ± 107 min: half-life ([2]; 300 mg, 300 mg QD, D7, fasted)
4 (66.7) n, %: Subjects with AE ([1]; 150 mg (n = 6))
48 min: Tmax [2, 3] | Tmax ([2]; 300 mg, 300 mg QD, D1, fasted)
3 (50.0) n, %: Subjects with AE ([1]; 300 mg single dose (n = 6))
0 n, %: Adverse event: Abdominal discomfort ([1]; 10 mg single dose (n = 6)) | Adverse event: Abnormal feces ([1]; 10 mg single dose (n = 6)) | Adverse event: Constipation ([1]; 10 mg single dose (n = 6)) | Adverse event: Dizziness ([1]; 10 mg single dose (n = 6)) | Adverse event: Dry mouth ([1]; 10 mg single dose (n = 6)) | Adverse event: Dry skin ([1]; 10 mg single dose (n = 6)) | Adverse event: Erythema ([1]; 10 mg single dose (n = 6)) | Adverse event: Flushing ([1]; 10 mg single dose (n = 6)) | Adverse event: Headache ([1]; 10 mg single dose (n = 6)) | Adverse event: Menstruation delayed ([1]; 10 mg single dose (n = 6)) | Adverse event: Musculoskeletal stiffness ([1]; 10 mg single dose (n = 6)) | Adverse event: Nausea ([1]; 10 mg single dose (n = 6)) | Adverse event: Palpitations ([1]; 10 mg single dose (n = 6)) | Adverse event: Pancreatic enzymes increased ([1]; 10 mg single dose (n = 6)) | Adverse event: Procedural nausea ([1]; 10 mg single dose (n = 6)) | Adverse event: Vessel puncture site bruise ([1]; 10 mg single dose (n = 6)) | Adverse event: Vessel puncture site pain ([1]; 10 mg single dose (n = 6)) | Adverse event: Vomiting ([1]; 10 mg single dose (n = 6)) | Subjects with AE ([1]; 10 mg single dose (n = 6)) | Adverse event: Abdominal discomfort ([1]; 25 mg single dose (n = 6)) | Adverse event: Abnormal feces ([1]; 25 mg single dose (n = 6)) | Adverse event: Constipation ([1]; 25 mg single dose (n = 6)) | Adverse event: Dizziness ([1]; 25 mg single dose (n = 6)) | Adverse event: Dry mouth ([1]; 25 mg single dose (n = 6)) | Adverse event: Dry skin ([1]; 25 mg single dose (n = 6)) | Adverse event: Erythema ([1]; 25 mg single dose (n = 6)) | Adverse event: Flushing ([1]; 25 mg single dose (n = 6)) | Adverse event: Headache ([1]; 25 mg single dose (n = 6)) | Adverse event: Menstruation delayed ([1]; 25 mg single dose (n = 6)) | Adverse event: Musculoskeletal stiffness ([1]; 25 mg single dose (n = 6)) | Adverse event: Nausea ([1]; 25 mg single dose (n = 6)) | Adverse event: Palpitations ([1]; 25 mg single dose (n = 6)) | Adverse event: Vessel puncture site bruise ([1]; 25 mg single dose (n = 6)) | Adverse event: Vessel puncture site pain ([1]; 25 mg single dose (n = 6)) | Adverse event: Vomiting ([1]; 25 mg single dose (n = 6)) | Adverse event: Abnormal feces ([1]; 50 mg single dose (n = 6)) | Adverse event: Constipation ([1]; 50 mg single dose (n = 6)) | Adverse event: Dry mouth ([1]; 50 mg single dose (n = 6)) | Adverse event: Dry skin ([1]; 50 mg single dose (n = 6)) | Adverse event: Erythema ([1]; 50 mg single dose (n = 6)) | Adverse event: Flushing ([1]; 50 mg single dose (n = 6)) | Adverse event: Menstruation delayed ([1]; 50 mg single dose (n = 6)) | Adverse event: Musculoskeletal stiffness ([1]; 50 mg single dose (n = 6)) | Adverse event: Nausea ([1]; 50 mg single dose (n = 6)) | Adverse event: Palpitations ([1]; 50 mg single dose (n = 6)) | Adverse event: Pancreatic enzymes increased ([1]; 50 mg single dose (n = 6)) | Adverse event: Procedural nausea ([1]; 50 mg single dose (n = 6)) | Adverse event: Vessel puncture site bruise ([1]; 50 mg single dose (n = 6)) | Adverse event: Vessel puncture site pain ([1]; 50 mg single dose (n = 6)) | Adverse event: Vomiting ([1]; 50 mg single dose (n = 6)) | Adverse event: Constipation ([1]; 150 mg (n = 6)) | Adverse event: Dry skin ([1]; 150 mg (n = 6)) | Adverse event: Menstruation delayed ([1]; 150 mg (n = 6)) | Adverse event: Musculoskeletal stiffness ([1]; 150 mg (n = 6)) | Adverse event: Palpitations ([1]; 150 mg (n = 6)) | Adverse event: Pancreatic enzymes increased ([1]; 150 mg (n = 6)) | Adverse event: Procedural nausea ([1]; 150 mg (n = 6)) | Adverse event: Vessel puncture site bruise ([1]; 150 mg (n = 6)) | Adverse event: Vessel puncture site pain ([1]; 150 mg (n = 6)) | Adverse event: Abdominal discomfort ([1]; 300 mg QD x 7 days (n = 6)) | Adverse event: Abnormal feces ([1]; 300 mg QD x 7 days (n = 6)) | Adverse event: Constipation ([1]; 300 mg QD x 7 days (n = 6)) | Adverse event: Dizziness ([1]; 300 mg QD x 7 days (n = 6)) | Adverse event: Dry mouth ([1]; 300 mg QD x 7 days (n = 6)) | Adverse event: Dry skin ([1]; 300 mg QD x 7 days (n = 6)) | Adverse event: Erythema ([1]; 300 mg QD x 7 days (n = 6)) | Adverse event: Flushing ([1]; 300 mg QD x 7 days (n = 6)) | Adverse event: Headache ([1]; 300 mg QD x 7 days (n = 6)) | Adverse event: Musculoskeletal stiffness ([1]; 300 mg QD x 7 days (n = 6)) | Adverse event: Nausea ([1]; 300 mg QD x 7 days (n = 6)) | Adverse event: Pancreatic enzymes increased ([1]; 300 mg QD x 7 days (n = 6)) | Adverse event: Procedural nausea ([1]; 300 mg QD x 7 days (n = 6)) | Adverse event: Vessel puncture site pain ([1]; 300 mg QD x 7 days (n = 6)) | Adverse event: Vomiting ([1]; 300 mg QD x 7 days (n = 6)) | Adverse event: Abdominal discomfort ([1]; 300 mg single dose (n = 6)) | Adverse event: Abnormal feces ([1]; 300 mg single dose (n = 6)) | Adverse event: Constipation ([1]; 300 mg single dose (n = 6)) | Adverse event: Dry mouth ([1]; 300 mg single dose (n = 6)) | Adverse event: Dry skin ([1]; 300 mg single dose (n = 6)) | Adverse event: Erythema ([1]; 300 mg single dose (n = 6)) | Adverse event: Flushing ([1]; 300 mg single dose (n = 6)) | Adverse event: Menstruation delayed ([1]; 300 mg single dose (n = 6)) | Adverse event: Palpitations ([1]; 300 mg single dose (n = 6)) | Adverse event: Pancreatic enzymes increased ([1]; 300 mg single dose (n = 6)) | Adverse event: Procedural nausea ([1]; 300 mg single dose (n = 6)) | Adverse event: Vessel puncture site pain ([1]; 300 mg single dose (n = 6)) | Adverse event: Vomiting ([1]; 300 mg single dose (n = 6))
54.6 ± 15.6 min: half-life [2, 4]
26 ± 7.6 ng·h/mL: AUC(0-inf) [2, 3]
62.4 ± 20.4 min: half-life [2, 5]
1290 ± 333 ng/mL: Cmax ([2]; 300 mg, 300 mg QD, D1, fasted)
